The text below walks through data of patent US11690824B2, “Antibacterial compounds” (THE GENERAL HOSPITAL CORPORATION, priority 2018, dated 2023).

The subject of one series is S. aureus (MRSA) MW2. Kind of series: Minimal inhibitory concentration (MIC) assay, micro-dilution. Format: cell-based. The settings on record: for MIC: Staphylococcus aureus. In outline:
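Readout is the minimal inhibitory concentration by CLSI micro-dilution. Biological triplicates were performed, with S. aureus in TSB and E. faecium in BHI broth at 37° C.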
A general note: Dilution methods test growth across graded concentrations, often in twofold steps.

The test system of a further series is S. aureus ATCC 29213. The series can be described thus: MIC assay. It is filed as cell-based. The settings on record: Staphylococcus aureus, ATCC29213; S. aureus ATCC 29213; read-out: Minimum inhibitory concentration. The source says:
(§1) Bacterial strains, growth conditions, and persister isolation. Methicillin-resistant S. aureus strains, MW2 BAA-1707, ATCC 33591, and JE2, methicillin-susceptible S. aureus strains, NCTC 8325, Newman, and ATCC 29213, vancomycin-resistant S. aureus strain, VRS1, Enterococcus faecium E007, vancomycin-resistant E. faecium strains, C68,^7 WB312, and WC196, Klebsiella pneumoniae WGLW2 (BEI Resources, Manassas, Va., USA), Acinetobacter baumannii ATCC 17978, Pseudomonas aeruginosa PA14, and Enterobacter aerogenes ATCC 13048 were used to test antimicrobial activity (Table 1). S. aureus strains were grown in tryptic soy broth (TSB) (BD, Franklin Lakes, N.J., USA), and E. faecium was grown in brain-heart infusion (BHI) broth (BD, Franklin Lakes, N.J., USA) at 37° C. K. pneumoniae, A. baumannii, P. aeruginosa, and E. aerogenes were grown in Luria Bertani (LB) broth (BD, Franklin Lakes, N.J., USA) at 37° C.
(§2) Minimal inhibitory concentration (MIC) assay. The MICS of antibiotics were determined by the standard micro-dilution method recommended by the Clinical and Laboratory Standards Institute. MIC assays were conducted in biological triplicate.

For a further series, the system named is S. aureus JE2. Kind of series: MIC assay. The settings on record: Staphylococcus aureus; S. aureus JE2; read-out: Minimum inhibitory concentration. It is filed as cell-based.
Source text: as §1, §2

Series [1] deals with MRSA-infected C. elegans glp-4(bn2);sek-1(km4). The series can be described thus: C. elegans-MRSA liquid killing assay. Format: in vivo. How it is done:
C. elegans-MRSA liquid killing assay. The C. elegans-MRSA infection assay was conducted as described in a previous study. Briefly, a black, clear-bottom 384-well plate (Corning no. 3712) was filled with 20 μL M9 buffer including the desired concentrations of nTZDpa, 1% DMSO (negative control), or 10 μg/mL vancomycin (positive control). After adding 15 young adult C. elegans glp-4(bn2);sek-1(km4) animals to the wells using a COPAS large particle sorter (Union Biometrica, Mass., USA), 35 μL of MRSA MW2 suspension was added (OD600 0.08). The assay plate was sealed with a gas-permeable membrane (Breathe-Easy, Diversified Biotech, Dedham, Mass., USA), and then incubated in a humidified chamber at 25° C. for 5 days. After washing the plate 8-times with M9 buffer using a microplate washer (BioTek EL×405, BioTek, Vt., USA), worms were stained with 0.7 μM SYTOX Orange. To evaluate worm survivability, the worms were imaged using an Image Xpress Micro automated microscope (Molecular Devices), capturing both transmitted light and TRITC (535 nm excitation, 610 nm emission) fluorescent images with a 2× objective. Only dead worms stain with SYTOX Orange. The assay was conducted in biological triplicate.

For the next series, the system named is MRSA MW2. Kind of series: Serial passage resistance development. Format: cell-based, S. aureus. The settings on record: 25 days, sub-MIC concentrations. How it is done:
Serial passage resistance development. […] Briefly, an extended range of concentrations of nTZDpa was generated by two-fold serial dilution with cation-adjusted Mueller Hinton (CaMH) broth (Difco, Detroit, USA) from three different starting concentrations (20, 24, and 32 μg/mL) covering 0.1875 to 32.0 μg/mL, which extended over three rows of the 96-well plate. Three sets of the extended gradient of nTZDpa were created in the 96-well plate to provide triplicates of the experiment. […] MRSA MW2 overnight cultures were adjusted to 1×10^6 CFU/mL in CaMH broth, and 50 μL of the diluted cultures were dispensed into the 96-well plates containing 50 μL of the extended gradient of antibiotics. After incubation for 24 h at 35° C., bacterial growth was determined by measuring optical density at 600 nm using a SpectraMax plate reader (Molecular Devices, Sunnyvale, Calif.), and growth was defined as an optical density reading of ≥0.1. Bacterial cells growing at the highest concentration of the antimicrobial (just below the MIC) were diluted 1:1000 in CaMH broth and then used to inoculate the next day's serial-passage plate. The remaining bacterial cells were stored at −80° C. in CaMH broth with 16% glycerol. This process was repeated for 25 days.

The next series relates to MRSA MW2 biofilms. The series can be described thus: Biofilm persister killing assay. The settings on record: 16 μg/ml nTZDpa combined with 10 μg/ml gentamicin, 24 h. Format: cell-based, S. aureus. How it is done:
Biofilm persister killing assay. An overnight culture of cells was diluted 1:200 with TSB supplemented with 0.2% glucose and 3% NaCl. A 13 mm-diameter Millipore mixed cellulose ester membrane (EMD Millipore GSWP01300) was placed at the bottom of each well of a 12-well plate (Falcon 353043). 1 mL of the diluted culture was added to each well and incubated statically at 37° C. for 24 h. The membranes were washed 3-times with PBS and transferred to a fresh 12-well plate. 1 mL of PBS containing the desired concentration of antibiotics was added to each well, and then the plate was incubated statically at 37° C. for 24 h. The membranes were washed 3 times with PBS, placed in 2-mL microcentrifuge tubes containing 1 mL PBS, and sonicated in an ultrasonic bath (Fisher Scientific FS 30) for 10 min. The sonicated samples were serially diluted and spot-plated on TSA to enumerate the number of live cells. The experiment was conducted in biological triplicate.

The subject of another series is HKC-8. Kind of series: Cytotoxicity (WST-1). It is filed as cell-based. The settings on record: 32 μg/ml. How it is done: (§3) Cytotoxicity. […] HepG2 and HKC-8 cells were grown in Dulbecco's modified Eagle F-12 media mixed 1:1 with Ham's F-12 (DMEM/F-12, Life Technologies, Carlsbad, Calif., USA) supplemented with 10% FBS and 4 mM L-glutamine at 37° C. in 5% CO2. For cytotoxicity assays, HepG2 or HKC-8 was cultured in 96-well plates in 100 μL/well of the proper media to reach 70-80% confluence. The cells were then treated with a range of concentrations of nTZDpa or its analogs for 72 h. 10 μL of WST-1 (Roche, Mannheim, Germany) was added per well for the last 4 h of the 72 h period. WST-1 reduction was measured at absorbance 450 nm. The percent […] relative to that of the no-treatment control was calculated. The assay was carried out in biological triplicate.
A general note: Tetrazolium dyes change colour on reduction, which living cells bring about.

The subject of another series is HepG2. Kind of series: Cytotoxicity (WST-1). The settings on record: 32 μg/ml. It is filed as cell-based. On the procedure:
as §3

Another series deals with Gram-negative bacteria. Kind of series: MIC against Gram-negative bacteria. It is filed as cell-based.
Source text: as §1, §2

SMILES strings stand for the structures. In brackets after ≈: the same amount, converted by molar mass. Read-outs that look alike come from different tables or passages of the source.

Turning to `O=C(O)c1c(Sc2ccccc2)c2cc(Cl)ccc2n1Cc1ccc(Cl)cc1` [nTZDpa], the MIC in the series with S. aureus (MRSA) MW2 (S. aureus (MRSA) MW2, read-out: Minimum inhibitory concentration) stood at 4 µg/mL (≈ 9.34 µM); with S. aureus (MRSA) MW2 (Table 3, growing MRSA, read-out: MIC), 4 µg/mL (≈ 9.34 µM); in the series with S. aureus ATCC 29213, 4 µg/mL (≈ 9.34 µM); in the series with S. aureus JE2, 4 µg/mL (≈ 9.34 µM). The “MIC relative to MIC of vancomycin” value with S. aureus (MRSA) MW2 (fold higher) amounted to 4 fold. In addition, in [1] (2 μg/ml to 16 μg/ml), the “C. elegans rescued from MRSA-mediated lethality” value is given as approximately 90%. Besides, the EC50 in series [1] (Caenorhabditis elegans, 120 h, read-out: EC50 (median effective concentration), C. elegans survival) was approximately 0.6 µg/mL (≈ 1.4 µM). Further, the “EC50 relative to EC50 of vancomycin” value in series [1] (fold higher) is given as 2 fold. In addition, the “increase of MIC over wild-type after serial passage” value in the series with MRSA MW2 is on record as “no increase in the nTZDpa MIC was observed”. In addition, the “MRSA persisters formed in biofilms” value with MRSA MW2 biofilms was “completely eradicated MRSA persisters formed in biofilms”. In the series with HKC-8, the “cell death of HKC-8” value is listed as approximately 16%. Further, the “cell death of HepG2” value in the series on HepG2 is on record as approximately 30%. In addition, the “antimicrobial activity against Gram-negative bacteria” value in the series on Gram-negative bacteria is “not effective against Gram-negative bacteria”.
